In patent publication US20230265151A1, “GIP/GLP1 CO-AGONIST COMPOUNDS” (priority 2020, published 2023) one finds Emax and EC50 data, which are given here for four compounds.

What all share (format): cell-based
Test [1] has as its target T1, hGIPR (Homo sapiens, UniProt P48546).
T1 construct: expressed in transfected cells
T1 sequence (P48546 22-466): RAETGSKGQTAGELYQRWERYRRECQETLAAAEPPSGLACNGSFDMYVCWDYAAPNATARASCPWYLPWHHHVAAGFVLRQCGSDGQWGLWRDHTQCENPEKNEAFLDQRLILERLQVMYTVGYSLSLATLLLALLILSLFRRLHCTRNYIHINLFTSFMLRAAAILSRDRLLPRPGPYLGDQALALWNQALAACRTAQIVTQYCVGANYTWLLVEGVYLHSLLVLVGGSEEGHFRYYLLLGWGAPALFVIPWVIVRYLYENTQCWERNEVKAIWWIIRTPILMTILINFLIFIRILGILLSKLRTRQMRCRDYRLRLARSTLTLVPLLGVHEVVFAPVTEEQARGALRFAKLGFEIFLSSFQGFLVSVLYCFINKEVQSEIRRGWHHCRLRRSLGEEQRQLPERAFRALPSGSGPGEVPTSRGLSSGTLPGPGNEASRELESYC
The experiment in a line: Functional cAMP formation (HTRF) in HEK-293 clonal cells expressing hGIPR, 0.1% bovine casein, without or with 1.0% human serum albumin. To be noted: for EC50: cAMP, 0.1% bovine casein (no human serum albumin), geometric mean, read-out: hGIPR EC50, nM (SEM, n). The gist of the method: (§1)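 Cells were stimulated with peptide for 30 min at 37° C, then intracellular cAMP was measured by competitive HTRF (665/620 nm ratio) and converted to nM using a cAMP standard curve. Relative EC50 and Emax came from four-parameter logistic fits of percent maximal response against peptide concentration.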

The target of test [2] is T2, hGCGR (Homo sapiens, UniProt P47871).
T2 construct: expressed in transfected cells
T2 sequence (P47871 26-477): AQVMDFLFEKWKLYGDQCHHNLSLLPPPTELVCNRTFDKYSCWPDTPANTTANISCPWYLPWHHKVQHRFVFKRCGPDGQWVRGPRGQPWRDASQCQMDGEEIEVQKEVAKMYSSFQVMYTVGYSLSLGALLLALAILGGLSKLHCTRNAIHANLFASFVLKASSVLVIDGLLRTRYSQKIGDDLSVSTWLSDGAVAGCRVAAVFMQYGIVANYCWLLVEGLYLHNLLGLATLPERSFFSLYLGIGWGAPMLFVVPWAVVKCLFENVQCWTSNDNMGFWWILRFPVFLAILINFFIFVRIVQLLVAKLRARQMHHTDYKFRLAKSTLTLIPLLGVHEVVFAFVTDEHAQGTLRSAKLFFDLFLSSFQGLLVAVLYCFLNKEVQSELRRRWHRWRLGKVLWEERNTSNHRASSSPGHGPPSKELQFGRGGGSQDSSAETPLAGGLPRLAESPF
As to the kind of experiment: Functional cAMP formation (HTRF) in HEK-293 clonal cells expressing hGCGR, 0.1% bovine casein, without or with 1.0% human serum albumin. To be noted: geometric mean. The gist of the method:
as §1
(In general: cAMP levels reflect the balance of adenylyl cyclase and phosphodiesterase activity.)

Test [3] deals with hGLP-1R (Homo sapiens, UniProt P43220). The experiment in a line: Functional cAMP formation (HTRF) in HEK-293 clonal cells expressing hGLP-1R, 0.1% bovine casein, without or with 1.0% human serum albumin. On the set-up: expressed in transfected cells. To be noted: for EC50: geometric mean, read-out: hGLP-1R EC50, nM (SEM, n). The procedure, abridged:
as §1

Each structure is given as a SMILES string. Read-outs that look alike come from different tables or passages of the source.

hGLP-1R, sequence (P43220 24-463): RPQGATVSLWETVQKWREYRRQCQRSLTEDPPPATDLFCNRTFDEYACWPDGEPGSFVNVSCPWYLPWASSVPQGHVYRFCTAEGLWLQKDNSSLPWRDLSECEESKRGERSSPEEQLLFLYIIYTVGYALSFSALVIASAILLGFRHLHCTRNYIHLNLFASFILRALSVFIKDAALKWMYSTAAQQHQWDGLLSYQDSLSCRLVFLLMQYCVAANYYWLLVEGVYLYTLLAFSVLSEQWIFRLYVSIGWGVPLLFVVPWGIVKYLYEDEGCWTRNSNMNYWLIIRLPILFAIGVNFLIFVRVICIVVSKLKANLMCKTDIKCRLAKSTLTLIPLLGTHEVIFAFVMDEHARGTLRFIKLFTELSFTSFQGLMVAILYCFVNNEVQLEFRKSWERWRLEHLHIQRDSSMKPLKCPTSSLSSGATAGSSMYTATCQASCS

The Emax is the size of the effect at its maximum, as opposed to the concentration needed. One may read the EC50 as the concentration at which the effect is half-maximal. On to `CC[C@H](C)[C@H](NC(=O)[C@H](CCCN)NC(=O)[C@H](CC(=O)O)NC(=O)[C@H](CC(C)C)NC(=O)[C@](C)(CC(C)C)NC(=O)[C@@H](NC(=O)[C@H](CO)NC(=O)[C@H](Cc1ccncc1)NC(=O)[C@H](CC(=O)O)NC(=O)[C@H](CO)NC(=O)[C@@H](NC(=O)[C@](C)(Cc1ccccc1F)NC(=O)[C@@H](NC(=O)CNC(=O)[C@H](CCC(=O)O)NC(=O)C(C)(C)NC(=O)[C@@H](N)Cc1ccc(O)cc1)[C@@H](C)O)[C@@H](C)O)[C@@H](C)CC)C(=O)N[C@@H](C)C(=O)N[C@@H](CCC(N)=O)C(=O)NC(C)(C)C(=O)N[C@@H](CCCCNC(=O)COCCOCCNC(=O)COCCOCCNC(=O)CC[C@H](NC(=O)CCCCCCCCCCOc1ccc(C(=O)O)cc1)C(=O)O)C(=O)N[C@@H](Cc1ccccc1)C(=O)N[C@H](C(=O)N[C@H](CCC(=O)O)C(=O)N[C@@](C)(Cc1ccc(O)cc1)C(=O)N[C@@H](CC(C)C)C(=O)N[C@H](C(=O)N[C@@H](CCCCNC(=O)COCCOCCNC(=O)COCCOCCNC(=O)CC[C@H](NC(=O)CCCCCCCCCCOc1ccc(C(=O)O)cc1)C(=O)O)C(=O)NCC(=O)NCC(=O)N1CCC[C@H]1C(=O)N[C@@H](CO)C(=O)N[C@@H](CO)C(=O)NCC(=O)N[C@@H](C)C(=O)N1CCC[C@H]1C(=O)N1CCC[C@H]1C(=O)N1CCC[C@H]1C(=O)N[C@@H](CO)C(N)=O)[C@@H](C)CC)[C@@H](C)CC` [Example 287], for which the maximal effect (Emax) in test [1] (HEK293, read-out: hGIPR Emax, % ± SEM, 0.1% bovine casein and 1.0% human serum albumin, 37° C., percent of maximal response to GIP(1-42)NH2) was determined as 98.9%; in test [1] (HEK293, read-out: hGIPR Emax, % ± SEM, cAMP, 37° C., 0.1% bovine casein, percent of maximal response to GIP(1-42)NH2, arithmetic mean), 93%; in test [3] (HEK293, read-out: hGLP-1R Emax, % ± SEM, cAMP, 37° C., 0.1% bovine casein, percent of maximal response to GLP-1(7-36)NH2, arithmetic mean), 97.2%. Also, the EC50 was greater than 9950 nM in test [2] (hGCGR EC50, nM (SEM, n), 0.1% bovine casein and 1.0% human serum albumin, 37° C.); greater than 9950 nM in test [2] (hGCGR EC50, nM (SEM, n), cAMP, 37° C., 0.1% bovine casein (no human serum albumin)).

Consider `CC[C@H](C)[C@H](NC(=O)[C@H](CC(C)C)NC(=O)[C@](C)(Cc1ccc(O)cc1)NC(=O)[C@@H](CCC(=O)O)NC(=O)[C@@H](NC(=O)[C@H](Cc1ccccc1)NC(=O)[C@H](CCC(=O)O)NC(=O)C(C)(C)NC(=O)[C@H](CCC(N)=O)NC(=O)[C@H](C)NC(=O)[C@H](CCCCNC(=O)COCCOCCNC(=O)CC[C@H](NC(=O)CCCCCCCCCCCCC(=O)O)C(=O)O)NC(=O)[C@H](CCCN)NC(=O)[C@H](CC(=O)O)NC(=O)[C@H](CC(C)C)NC(=O)[C@](C)(CC(C)C)NC(=O)[C@@H](NC(=O)C(C)(C)NC(=O)[C@H](Cc1ccc(O)cc1)NC(=O)[C@H](CC(=O)O)NC(=O)[C@H](CO)NC(=O)[C@@H](NC(=O)[C@](C)(Cc1ccccc1F)NC(=O)[C@@H](NC(=O)CNC(=O)[C@H](CCC(=O)O)NC(=O)C(C)(C)NC(=O)[C@@H](N)Cc1ccc(O)cc1)[C@@H](C)O)[C@@H](C)O)[C@@H](C)CC)[C@@H](C)CC)C(=O)N[C@@H](CCC(=O)O)C(=O)NCC(=O)NCC(=O)N1CCC[C@H]1C(=O)N[C@@H](CO)C(=O)N[C@@H](CO)C(=O)NCC(=O)N[C@@H](C)C(=O)N1CCC[C@H]1C(=O)N1CCC[C@H]1C(=O)N1CCC[C@H]1C(=O)N[C@@H](CO)C(=O)N[C@@H](CCCCNC(=O)COCCOCCNC(=O)CC[C@H](NC(=O)CCCCCCCCCCCCC(=O)O)C(=O)O)C(N)=O` [Example 368], for which, in test [1] (HEK293, cAMP, 37° C., 0.1% bovine casein, percent of maximal response to GIP(1-42)NH2, arithmetic mean, read-out: hGIPR Emax, % ± SEM), the Emax was 105%. For the same compound, the 50% effective concentration (EC50) in test [1] (37° C.) is 0.0271 nM; in test [2] (cAMP, 37° C., 0.1% bovine casein (no human serum albumin), read-out: hGCGR EC50, nM (SEM, n)) it was greater than 9950 nM; in test [3] (cAMP, 37° C., 0.1% bovine casein (no human serum albumin)), 0.411 nM.

With `CC[C@H](C)[C@H](NC(=O)[C@H](CC(C)C)NC(=O)[C@](C)(Cc1ccc(O)cc1)NC(=O)[C@@H](CCC(=O)O)NC(=O)[C@@H](NC(=O)[C@](C)(Cc1ccccc1)NC(=O)[C@H](CCC(=O)O)NC(=O)C(C)(C)NC(=O)[C@H](CCC(N)=O)NC(=O)[C@H](C)NC(=O)[C@H](CCCCNC(=O)COCCOCCNC(=O)COCCOCCNC(=O)CC[C@H](NC(=O)CCCCCCCCCCCCC(=O)O)C(=O)O)NC(=O)[C@H](CCCN)NC(=O)[C@H](CC(=O)O)NC(=O)[C@H](CC(C)C)NC(=O)[C@](C)(CC(C)C)NC(=O)[C@@H](NC(=O)[C@H](CO)NC(=O)[C@H](Cc1ccncc1)NC(=O)[C@H](CC(=O)O)NC(=O)[C@H](CO)NC(=O)[C@@H](NC(=O)[C@](C)(Cc1ccccc1)NC(=O)[C@@H](NC(=O)CNC(=O)[C@H](CCC(=O)O)NC(=O)C(C)(C)NC(=O)[C@@H](N)Cc1ccc(O)cc1)[C@@H](C)O)[C@@H](C)O)[C@@H](C)CC)[C@@H](C)CC)C(=O)N[C@@H](CCC(=O)O)C(=O)NCC(=O)NCC(=O)N[C@@H](CCCCNC(=O)COCCOCCNC(=O)COCCOCCNC(=O)CC[C@H](NC(=O)CCCCCCCCCCCCC(=O)O)C(=O)O)C(=O)N[C@@H](CO)C(=O)N[C@@H](CO)C(=O)NCC(=O)N[C@@H](C)C(=O)N1CCC[C@H]1C(=O)N1CCC[C@H]1C(=O)N1CCC[C@H]1C(=O)N[C@@H](CO)C(N)=O` [Example 47], the Emax was found to be 85.6% in test [1] (HEK293, 0.1% bovine casein and 1.0% human serum albumin, 37° C., percent of maximal response to GIP(1-42)NH2, read-out: hGIPR Emax, % ± SEM); 89.8 ± 1.2% in test [1] (HEK293, percent of maximal response to GIP(1-42)NH2, 37° C., 0.1% bovine casein, arithmetic mean, read-out: hGIPR Emax, % ± SEM); 134% in test [3] (HEK293, 0.1% bovine casein and 1.0% human serum albumin, 37° C., percent of maximal response to GLP-1(7-36)NH2, read-out: hGLP-1R Emax, % ± SEM); 87.1 ± 14.1% in test [3] (HEK293, percent of maximal response to GLP-1(7-36)NH2, 37° C., 0.1% bovine casein, arithmetic mean, read-out: hGLP-1R Emax, % ± SEM). Also, the EC50 in test [1] (incubated at 37° C.) is 0.0138 nM; in test [2] (0.1% bovine casein and 1.0% human serum albumin, 37° C., read-out: hGCGR EC50, nM (SEM, n)), greater than 9950 nM; in test [2] (cAMP, incubated at 37° C., 0.1% bovine casein (no human serum albumin), read-out: hGCGR EC50, nM (SEM, n)) it was greater than 9950 nM; in test [3] (0.1% bovine casein and 1.0% human serum albumin, 37° C.), 1670 nM.

On to `CC[C@H](C)[C@H](NC(=O)[C@H](CC(C)C)NC(=O)[C@](C)(Cc1ccccc1)NC(=O)[C@H](CCCCNC(=O)COCCOCCNC(=O)COCCOCCNC(=O)CC[C@H](NC(=O)CCCCCCCCCCCCC(=O)O)C(=O)O)NC(=O)[C@@H](NC(=O)[C@](C)(Cc1ccccc1)NC(=O)[C@H](CCC(=O)O)NC(=O)C(C)(C)NC(=O)[C@H](CCC(N)=O)NC(=O)[C@H](C)NC(=O)[C@H](CCCCNC(=O)COCCOCCNC(=O)COCCOCCNC(=O)CC[C@H](NC(=O)CCCCCCCCCCCCC(=O)O)C(=O)O)NC(=O)[C@H](CCCN)NC(=O)[C@H](CC(=O)O)NC(=O)[C@H](CC(C)C)NC(=O)[C@](C)(CC(C)C)NC(=O)[C@@H](NC(=O)[C@H](CO)NC(=O)[C@H](Cc1ccncc1)NC(=O)[C@H](CC(=O)O)NC(=O)[C@H](CO)NC(=O)[C@@H](NC(=O)[C@](C)(Cc1ccccc1F)NC(=O)[C@@H](NC(=O)CNC(=O)[C@H](CCC(=O)O)NC(=O)C(C)(C)NC(=O)[C@@H](N)Cc1ccc(O)cc1)[C@@H](C)O)[C@@H](C)O)[C@@H](C)CC)[C@@H](C)CC)C(=O)N[C@@H](CCC(=O)O)C(=O)NCC(=O)NCC(=O)N1CCC[C@H]1C(=O)N[C@@H](CO)C(=O)N[C@@H](CO)C(=O)NCC(=O)N[C@@H](C)C(=O)N1CCC[C@H]1C(=O)N1CCC[C@H]1C(=O)N1CCC[C@H]1C(=O)N[C@@H](CO)C(N)=O` [Example 84], for which the Emax in test [1] (HEK293, read-out: hGIPR Emax, % ± SEM, percent of maximal response to GIP(1-42)NH2, 37° C., 0.1% bovine casein, arithmetic mean) came to 98.5%; in test [3] (HEK293, read-out: hGLP-1R Emax, % ± SEM, percent of maximal response to GLP-1(7-36)NH2, 37° C., 0.1% bovine casein, arithmetic mean), 94%. The compound also displayed an EC50 in test [2] (hGCGR EC50, nM (SEM, n), cAMP, incubated at 37° C., 0.1% bovine casein (no human serum albumin)) greater than 9950 nM.
